# Laboratory results as given in PubChem BioAssay AID330 (DTP/NCI, 2004).
# Where “and” joins values, the source holds several entries; their conditions need not be identical. Identical values can stand only once. Toxic doses and inconclusive results are not listed.
# Test system: P388 leukemia ip, CD2F1 mice, survival T/C
# Assay: NCI In Vivo Anticancer Drug Screen. Data for tumor model P388 Leukemia (intraperitoneal) in CD2F1 (CDF1) mice
# Conditions: endpoint: median survival time, higher = longer survival
# Procedure, shortened: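 Mice carrying the transplanted tumor received test compound or vehicle. Survival was recorded in each group, and the value is the treated-group measurement divided by that of the vehicle-treated control group.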
# [1] = dose: 100.0 mg/kg/injection, schedule: Q04DX003 (ip), vehicle: saline with Tween-80
# [2] = dose: 200.0 mg/kg/injection, schedule: Q04DX003 (ip), vehicle: saline with Tween-80
# [3] = dose: 6.25 mg/kg/injection, schedule: Q01DX005 (ip), vehicle: Klucel (hydroxypropylcellulose) (HPC)
structure (smiles),measurement,setting,value
COc1cccc2c1C(=N)c1c(O)c3c(c(O)c1C2=O)C[C@@](O)(C(O)CO)C[C@@H]3OC1CC(N2CCOCC2)C(O)C(C)O1 (stereo not given in full),T/C,"dose: 3.12 mg/kg/injection, schedule: Q04DX003 (ip), vehicle: water",112 % of control and 115 % of control
same,T/C,"dose: 6.25 mg/kg/injection, schedule: Q04DX003 (ip), vehicle: water",118 % of control
same,T/C,"dose: 12.5 mg/kg/injection, schedule: Q04DX003 (ip), vehicle: water",108 % of control and 120 % of control
same,T/C,"dose: 18.7 mg/kg/injection, schedule: Q04DX003 (ip), vehicle: water",105 % of control
same,T/C,"dose: 50.0 mg/kg/injection, schedule: Q04DX003 (ip), vehicle: water",115 % of control and 161 % of control and 221 % of control
same,T/C,"dose: 75.0 mg/kg/injection, schedule: Q04DX003 (ip), vehicle: water",118 % of control
O=[N+]([O-])c1ccc(Sc2ccc([N+](=O)[O-])cc2)cc1,T/C,"dose: 50.0 mg/kg/injection, schedule: Q04DX003 (ip), vehicle: saline with Tween-80",90 % of control
same,T/C,"dose: 66.0 mg/kg/injection, schedule: Q04DX003 (ip), vehicle: saline with Tween-80",90 % of control
same,T/C,[1],100 % of control and 95 % of control
same,T/C,"dose: 150.0 mg/kg/injection, schedule: Q04DX003 (ip), vehicle: saline with Tween-80",90 % of control
same,T/C,[2],90 % of control
Nc1ncc(NCCCNc2ccc(C(=O)NC(CCC(=O)O)C(=O)O)cc2)c(=O)[nH]1 (stereo not given),T/C,[3],100 % of control and 102 % of control
same,T/C,"dose: 12.5 mg/kg/injection, schedule: Q01DX005 (ip), vehicle: Klucel (hydroxypropylcellulose) (HPC)",100 % of control and 102 % of control
same,T/C,"dose: 25.0 mg/kg/injection, schedule: Q01DX005 (ip), vehicle: Klucel (hydroxypropylcellulose) (HPC)",99 % of control and 104 % of control
same,T/C,"dose: 50.0 mg/kg/injection, schedule: Q01DX005 (ip), vehicle: Klucel (hydroxypropylcellulose) (HPC)",102 % of control and 98 % of control
same,T/C,"dose: 100.0 mg/kg/injection, schedule: Q01DX005 (ip), vehicle: Klucel (hydroxypropylcellulose) (HPC)",99 % of control and 103 % of control
same,T/C,"dose: 200.0 mg/kg/injection, schedule: Q01DX005 (ip), vehicle: Klucel (hydroxypropylcellulose) (HPC)",100 % of control and 102 % of control
Cc1ccc(NC(=O)NCCCN2CCOCC2)cc1NC(=O)NCCCN1CCOCC1,T/C,"dose: 50.0 mg/kg/injection, schedule: Q01DX009 (ip), vehicle: Klucel (hydroxypropylcellulose) (HPC)",104 % of control
same,T/C,"dose: 100.0 mg/kg/injection, schedule: Q01DX009 (ip), vehicle: Klucel (hydroxypropylcellulose) (HPC)",100 % of control
same,T/C,"dose: 200.0 mg/kg/injection, schedule: Q01DX009 (ip), vehicle: Klucel (hydroxypropylcellulose) (HPC)",96 % of control
CC(C)CC(NC(=O)OCc1ccccc1)C(=O)O (stereo not given),T/C,"dose: 50.0 mg/kg/injection, schedule: Q01DX005 (ip), vehicle: saline with Tween-80",105 % of control
same,T/C,"dose: 100.0 mg/kg/injection, schedule: Q01DX005 (ip), vehicle: saline with Tween-80",101 % of control
CC(C)CCN=C(N)N=C(N)N,T/C,"dose: 60.0 mg/kg/injection, schedule: Q01DX005 (ip), vehicle: saline",100 % of control
same,T/C,"dose: 120.0 mg/kg/injection, schedule: Q01DX005 (ip), vehicle: saline",109 % of control
CC(CN(C)C)C(=O)/C=C/c1c(Cl)cccc1Cl (stereo not given),T/C,"dose: 60.0 mg/kg/injection, schedule: Q01DX005 (ip), vehicle: saline with Tween-80",111 % of control
COC(=O)[CH2][Sn]([CH2]C(=O)OC)([CH]1CCCCC1)[CH]1CCCCC1,T/C,"dose: 1.56 mg/kg/injection, schedule: Q01DX005 (ip), vehicle: Klucel (hydroxypropylcellulose) (HPC)",104 % of control
same,T/C,"dose: 3.12 mg/kg/injection, schedule: Q01DX005 (ip), vehicle: Klucel (hydroxypropylcellulose) (HPC)",88 % of control
same,T/C,[3],111 % of control and 88 % of control
CC(=O)NCCN=Cc1ccccc1,T/C,[1],100 % of control
same,T/C,[2],100 % of control
same,T/C,"dose: 400.0 mg/kg/injection, schedule: Q04DX003 (ip), vehicle: saline with Tween-80",100 % of control
Cc1ccc2nc(=O)c3cccnc3n2c1,T/C,"dose: 3.75 mg/kg/injection, schedule: Q01DX005 (ip), vehicle: saline",103 % of control
same,T/C,"dose: 7.5 mg/kg/injection, schedule: Q01DX005 (ip), vehicle: saline",97 % of control
same,T/C,"dose: 15.0 mg/kg/injection, schedule: Q01DX005 (ip), vehicle: saline",98 % of control
CCOC(=O)NC(NC(=O)OCC)c1ccncc1,T/C,"dose: 100.0 mg/kg/injection, schedule: Q04DX003 (ip), vehicle: saline",94 % of control
same,T/C,"dose: 200.0 mg/kg/injection, schedule: Q04DX003 (ip), vehicle: saline",98 % of control
same,T/C,"dose: 400.0 mg/kg/injection, schedule: Q04DX003 (ip), vehicle: saline",99 % of control
Nc1nc(N)c2cc(S(=O)(=O)c3nc(-c4ccccc4)cs3)ccc2n1,T/C,"dose: 60.0 mg/kg/injection, schedule: Q01DX005 (ip), vehicle: Klucel (hydroxypropylcellulose) (HPC)",98 % of control
same,T/C,"dose: 120.0 mg/kg/injection, schedule: Q01DX005 (ip), vehicle: Klucel (hydroxypropylcellulose) (HPC)",98 % of control
same,T/C,"dose: 240.0 mg/kg/injection, schedule: Q01DX005 (ip), vehicle: Klucel (hydroxypropylcellulose) (HPC)",105 % of control
